Where “and” joins values, the source holds several entries; their conditions need not be identical. Equal values may be shown once.
Key:
[1] = system: KMS-12-PE human MM subcutaneous xenograft model; test: KMS-12-PE xenograft model study: tumor growth; assay type: in vivo, NCG mice; conditions: for Tumor Volume (mm^3) (Mean ± SEM) Day 17: 17 days
Method: KMS-12-PE, a human MM cell line, was obtained from Deutsche Sammlung von Mikroorganismen und Zellkulturen (DSMZ, Catalog: ACC 606). KMS-12-PE cells were cultured in RPMI 1640 complete medium, supplemented with 20% (v/v) fetal bovine serum, and 100 μg/mL of penicillin and streptomycin. In this study, cells were used within 10 passages of recovery from liquid nitrogen. KMS-12-PE cells were maintained as suspension cultures at 37° C. in a 5% CO2 atmosphere, being passaged twice weekly. […] Resuspended cells were placed on ice prior to inoculation. The right front flank of each mouse was cleaned with 75% ethanol prior to cell inoculation. Each animal was injected subcutaneously with 3×10^7 cells in 200 μL of cells suspension in the right front flank via a 1 mL LS 25GA syringe. […] Body weight was assessed immediately before dosing and volume dosed was adjusted accordingly. Tumor volume was measured twice weekly in two dimensions using a caliper (measurable since day 4 post treatment in this study). Body weights were recorded twice weekly. One individual was responsible for tumor measurement for the duration of the study. Mice were also monitored daily for clinical signs of toxicity. Mice were euthanized using carbon dioxide at the end of the study. The two-dimension diameters of tumor were determined using a caliper. Tumor volume was calculated using the formula: […] Tumor growth inhibition (TGI) was calculated using the following formula: […] Where, treated t=treated tumor volume at time t, treated t0=treated tumor volume at time 0, vehicle t=vehicle tumor volume at time t, vehicle t0=vehicle tumor volume at time 0. The tumor volume on day 17 post treatment was analyzed using ANOVA method on logarithmic scale in SAS Enterprise Guide version: 7.15 HF3. The following comparisons were made among treatment groups, […] The combination therapy was compared to corresponding single agents. […] The EOHSA tests were adjusted by Holm's multiple comparison test. #p<0.05, ####p<0.0001.

[2] = Clinical study, PK of Compound 1 in combination with dexamethasone; assay type: in vivo, human; conditions: MM patients, 80 to 640 mg target doses
Method: A dose escalation study is conducted to evaluate the safety and tolerability of Compound 1 in combination with dexamethasone and dexamethasone plus carfilzomib in patients with relapsed/refractory (R/R) multiple myeloma (MM) and t (11;14). Also, the corresponding maximum tolerated dose (MTD)/maximum assessed dose (MAD), recommended Phase 2 dose (RP2D) and pharmacokinetics for Compound 1 in the combination therapies are to be observed.
Compound 1 plus dexamethasone: Patients with R/R MM and t (11;14) receive increasing doses of Compound 1 once daily with starting dose at 80 mg once daily, plus 40 mg of dexamethasone once weekly to determine the safety, tolerability, efficacy, and pharmacokinetics (PK). Upon completion of the dose-limiting toxicity (DLT) window (21 days) and depending on the number of evaluable patients and observed DLTs, the dose of Compound 1 may be de-escalated to 40 mg once daily, stay at 80 mg once daily, or be escalated to 160 mg once daily. Upon dose escalation to 160 mg once daily and provided there are no DLTs observed during the DLT window, the study may be conducted to escalate to a few higher dose levels (up to 640 mg once daily), or to insert some certain intermediate doses between 80 mg and 160 mg once daily.

[3] = PK analysis of Compound 1 in KMS-12-PE xenograft mice (plasma, day 14); assay type: in vivo, NCG mice; conditions: for AUC0-24 h of Compound 1, Day 14 / Cmax of Compound 1, Day 14: plasma; for Individual animal's plasma concentration of Compound 1, 0 h post treatment / Individual animal's plasma concentration of Compound 1, 0.5 h post treatment / Individual animal's plasma concentration of Compound 1, 2 h post treatment / Individual animal's plasma concentration of Compound 1, 8 h post treatment / Individual animal's plasma concentration of Compound 1, 24 h post treatment: day 14, steady state
Method: On day 14 post treatment, blood samples (about 100 μL per mouse) were collected from the retro-orbital sinus under isoflurane/oxygen anesthesia at predose 0, 0.5, 2, 8, and 24 hours after dosing of Compound 1 (3 mice per time point, every mouse was used for 2 or 3 time points). The blood was transferred to the EDTA-K2 anticoagulation tube, and the plasma was collected by centrifugation at 5,600 rpm for 7 min and was kept frozen in −80° C. until analysis.
For PK analysis, maximum plasma concentration (Cmax) and time to peak (Tmax) were got directly from the plasma concentration versus time graphs. The area under the plasma concentration-time curve (AUC) from time 0 to 24 hours post-dose (AUC0-24h) was calculated.

[4] = system: patients with R/R MM harboring t (11;14); assay type: in vivo, human; conditions: 19 patients, 80, 160, 320 and 640 mg QD with dexamethasone, preliminary
[5] = Compound 1 1.5 mg/kg + Dexamethasone 0.1 mg/kg p.o. QD
[6] = Compound 1 1.5 mg/kg + Dexamethasone 0.1 mg/kg
[7] = Compound 1 1.5 mg/kg + Dexamethasone 1 mg/kg p.o. QD
[8] = Compound 1 1.5 mg/kg + Dexamethasone 1 mg/kg
[9] = Compound 1 1.5 mg/kg p.o. QD, single agent
[10] = Compound 1 1.5 mg/kg p.o. QD, 1.5 mg/kg
[11] = Dexamethasone 0.1 mg/kg p.o. QD

SMILES: CC(C)c1ccccc1[C@@H]1CCCN1C1CC2(CCN(c3ccc(C(=O)NS(=O)(=O)c4ccc(NCC5CCC(C)(O)CC5)c([N+](=O)[O-])c4)c(Oc4cnc5[nH]ccc5c4)c3)CC2)C1 (stereo partly drawn) [Compound 1, 2-((1H-pyrrolo[2,3-b]pyridin-5-yl)oxy)-N-((4-((((1r,4r)-4-hydroxy-4-methylcyclohexyl)methyl)amino)-3-nitrophenyl)sulfonyl)-4-(2-((S)-2-(2-isopropylphenyl)pyrrolidin-1-yl)-7-azaspiro[3.5]nonan-7-yl)benzamide]
- TGI (%) Day 17 ([1]; Compound 1 1.5 mg/kg p.o. QD): 11%
- Tumor Volume (mm^3) (Mean ± SEM) Day 17 ([1]; Compound 1 1.5 mg/kg p.o. QD): 1011.7 ± 103.8 mm^3
- drug-drug-interaction (DDI) potential between dexamethasone and Compound 1 [2]: low
- AUC0-24 h of Compound 1, Day 14 [3, 5]: 107 ng·h/mL
- Cmax of Compound 1, Day 14 [3, 5]: 29.5 ng/mL
- Individual animal's plasma concentration of Compound 1, 0 h post treatment [3, 6]: BLOQ
- Individual animal's plasma concentration of Compound 1, 0.5 h post treatment [3, 6]: 4.02 ng/mL and 5.2 ng/mL and 3.67 ng/mL
- Individual animal's plasma concentration of Compound 1, 2 h post treatment [3, 6]: 36.7 ng/mL and 30.9 ng/mL and 20.8 ng/mL
- Individual animal's plasma concentration of Compound 1, 8 h post treatment [3, 6]: 3.18 ng/mL and 6.95 ng/mL and 3.59 ng/mL
- Individual animal's plasma concentration of Compound 1, 24 h post treatment [3, 6]: BLOQ
- AUC0-24 h of Compound 1, Day 14 [3, 7]: 179 ng·h/mL
- Cmax of Compound 1, Day 14 [3, 7]: 42.4 ng/mL
- Individual animal's plasma concentration of Compound 1, 0 h post treatment [3, 8]: BLOQ
- Individual animal's plasma concentration of Compound 1, 0.5 h post treatment [3, 8]: 14.4 ng/mL and 6.94 ng/mL and 9.04 ng/mL
- Individual animal's plasma concentration of Compound 1, 2 h post treatment [3, 8]: 54.9 ng/mL and 35.8 ng/mL and 36.4 ng/mL
- Individual animal's plasma concentration of Compound 1, 8 h post treatment [3, 8]: 5.15 ng/mL and 7.02 ng/mL and 5.05 ng/mL
- Individual animal's plasma concentration of Compound 1, 24 h post treatment [3, 8]: BLOQ (2×) and 0.692 ng/mL
- AUC0-24 h of Compound 1, Day 14 [3, 9]: 200 ng·h/mL
- Cmax of Compound 1, Day 14 [3, 9]: 55.8 ng/mL
- exposure (AUC0-24h and Cmax) at steady state, single treatment group versus combo treatment ([3]; Compound 1 1.5 mg/kg p.o. QD, with or without dexamethasone): consistent with that in combo treatment
- Individual animal's plasma concentration of Compound 1, 24 h post treatment ([3]; Compound 1 1.5 mg/kg p.o. QD): BLOQ
- Individual animal's plasma concentration of Compound 1, 0 h post treatment [3, 10]: 1.09 ng/mL and BLOQ (2×)
- Individual animal's plasma concentration of Compound 1, 0.5 h post treatment [3, 10]: 8 ng/mL and 5.72 ng/mL and 9.29 ng/mL
- Individual animal's plasma concentration of Compound 1, 2 h post treatment [3, 10]: 62.8 ng/mL and 40.7 ng/mL and 63.9 ng/mL
- Individual animal's plasma concentration of Compound 1, 8 h post treatment [3, 10]: 9.97 ng/mL and 9.73 ng/mL and 5.81 ng/mL
- clinical activity / disease control [4]: demonstrated activity at tested dose levels, and most patients achieved disease control

SMILES: C[C@@H]1C[C@H]2[C@@H]3CCC4=CC(=O)C=C[C@]4(C)[C@@]3(F)[C@@H](O)C[C@]2(C)[C@@]1(O)C(=O)CO [Dexamethasone]
- TGI (%) Day 17 [1, 11]: 9%
- Tumor Volume (mm^3) (Mean ± SEM) Day 17 [1, 11]: 1036.5 ± 88.8 mm^3
- TGI (%) Day 17 ([1]; Dexamethasone 1 mg/kg p.o. QD): 46%
- Tumor Volume (mm^3) (Mean ± SEM) Day 17 ([1]; Dexamethasone 1 mg/kg p.o. QD): 696.0 ± 69.2 mm^3
